US9175058B2, “Soluble immune response suppressor polypeptides and treatment of multiple sclerosis and other autoimmune diseases” (THE BOARD OF REGENTS OF THE UNIVERSITY OF TEXAS SYSTEM, priority 2004, dated 2015)
No end group written: not given here.

Assays:
Assay type in all cases: in vivo, mouse
SOCS-2 = assay: Quantitative PCR of SOCS-2 transcripts in spleen and spinal cord of SIRS peptide-fed EAE mice
From the text: (§1) Quantitative PCR can be performed for nominal EAE cytokine or transcript of interest. In particular, the mean measured transcript levels for IL-2/IFN-γ (Th1-like), IL-4/IL-10 (Th2-like) and other nominal biologic response modifiers of interest (e.g. TGF-β, IL-1, IL-6, IL-12, TNF-α) will be normalized to the b-actin control and expressed as % b-actin molecules.
(§2) Inflamed spinal cords from soluble immune response suppressor peptide-fed B6 mice (active treatment group) or from mock fed donor mice (control) were utilized for the experiments below. Intact spinal cord can be ejected by injecting saline into the distal end of the spinal canal and stored in RNALater (Ambion). The spinal cord is disrupted and the resulting cell suspension is filtered through a Falcon Cell Strainer 2350 (Becton Dickinson, San Jose, Calif.). Total RNA was processed on day 23-26 post active immunization, and relative numbers of transcripts for IFN-γ, IL-4, IL-10, SOCS-1, SOCS-2, and SOCS-3 were determined by quantitative PCR. The measured mean transcript levels were normalized to b-actin control (normalization mean=COI mean/b-actin×100) and expressed as % b-actin molecules.

EAE in B6 recipients = assay: Adoptive transfer of MOG-restimulated splenocytes from SIRS peptide-injected donors to B6 recipients; conditions: recipients of 10×10^6 MOG-activated splenocytes i.p. from donors injected with 10 mg day −7 through day +14, FIG. 3
Experimental: B6 mice effector donors were actively immunized with myelin oligodendrocyte glycoprotein peptide 35-55 described above (day 0) and injected (day −7 through day +14 post-immunization) with 0.1 ml of control saline (n=8) or 10 mg of soluble immune response suppressor peptide 1-21 (n=8). On day 14 post inoculation, splenocytes from both saline-injected (mock control) and soluble immune response suppressor peptide-injected (active treatment) immunized donor mice were re-stimulated in vitro with […] myelin oligodendrocyte glycoprotein peptide 35-55 at 20×10^6 splenocytes for >1 hour and then diluted to 2-4 million cells/ml and cultured for 48-72 hours in RPMi with 10% FCS and 1% Pen/Strep. Myelin oligodendrocyte glycoprotein-restimulated cells were washed, counted and passively transferred (10×10^6) i.p. into 8-10 week old female B6 recipients.
The control group reached a maximum disease score of 2.1.

SOCS-1 [1] = assay: Quantitative PCR of SOCS-1 transcripts in spleen and spinal cord of SIRS peptide-fed EAE mice; conditions: for Splenic SOCS-1 transcript level normalized to b-actin: spleen, day 23-26 post active immunization
[2] = tested on: diabetes mellitus in NOD mice; assay: Ingested SIRS peptide 1-21 in spontaneous diabetes of NOD mice; conditions: NOD female mice fed 100 μg daily from age ten weeks, FIG. 6 and FIG. 7
Experimental: NOD female mice (NOD MrkTacfBR) were obtained from Taconic Farms at eight weeks of age and feeding with mock (n=12) or 100 μg SIRS peptide 1-21 (n=6) in 0.1 ml DPBS daily was initiated at ten weeks. One hundred micrograms was used because this was an effective dose for inhibiting EAE (experimental autoimmune encephalomyelitis) in mice. The mice were maintained and fed under SPF conditions in microisolators, and handled under negative pressure sterile hoods. Surveillance mice were maintained with experimental mice and examined regularly for routine murine pathogens.
Mice were followed after initiation of feeding by weekly blood glucose determination (Life Scan One Touch II, Johnson & Johnson) beginning at week 18 thru 22. Animals were considered diabetic if two consecutive blood glucose determinations were above >11.1 mmol/l or >[…]. […]
Mock or SIRS peptide 1-21 was administered using a 2.5 cm syringe fitted with a 22-24 gauge ball point needle directly to the stomach and proximal small intestine (Thomas Scientific, Swedesboro, N.J.) daily to NOD mice beginning at age ten weeks. The peptide was directly delivered to the distal esophagus, stomach and proximal small intestine (as determined experimentally by injecting Evans blue during routine feeding and subsequent sacrifice). […]

acute EAE in B6 mice [3] = assay: Ingested (gavaged) SIRS peptide 1-21 in acute EAE induced by MOG peptide 35-55
IL-10 = assay: Quantitative PCR of IL-10 transcripts in spleen and spinal cord of SIRS peptide-fed EAE mice
From the text: as §1, §2

SOCS-1 [4] = assay: Quantitative PCR of SOCS-1 transcripts in spleen and spinal cord of SIRS peptide-fed EAE mice; conditions: for SOCS-1 transcript level in CNS target tissue normalized to b-actin: spinal cord, day 23-26 post active immunization
From the text: as §1, §2

SOCS-3 [5] = assay: Quantitative PCR of SOCS-3 transcripts in spleen and spinal cord of SIRS peptide-fed EAE mice; conditions: for SOCS-3 transcript level in CNS target tissue normalized to b-actin: spinal cord, day 23-26 post active immunization
From the text: as §1, §2

IFN-γ = assay: Quantitative PCR of IFN-γ transcripts in spleen and spinal cord of SIRS peptide-fed EAE mice
From the text: as §1, §2

acute EAE in B6 mice [6] = assay: Parenteral (injected) SIRS peptide 1-21 in acute EAE induced by MOG peptide 35-55; conditions: day −7 through day 14 post immunization, n=8/group; for inhibition of EAE compared to placebo: FIG. 2
SOCS-3 [7] = assay: Quantitative PCR of SOCS-3 transcripts in spleen and spinal cord of SIRS peptide-fed EAE mice; conditions: for Splenic SOCS-3 transcript level normalized to b-actin: spleen, day 23-26 post active immunization
IL-4 = assay: Quantitative PCR of IL-4 transcripts in spleen and spinal cord of SIRS peptide-fed EAE mice; conditions: for IL-4 transcript level in CNS target tissue normalized to b-actin: spinal cord, day 23-26 post active immunization
From the text: as §1, §2

C57/BL6 mice = assay: Induction of acute EAE by active immunization with MOG peptide 35-55; set-up: dose or concentration left out as unconfirmed; conditions: day 21, s.c. immunization with peptide in IFA, pertussis toxin, FIG. 1
[8] = splenic samples, data not shown
[9] = splenic samples from peptide-fed mice
[10] = CNS target organ (spinal cord) of peptide-fed mice

MTEENQQSSQPKTTINNAGDS
difference in SOCS-2 compared to control (SOCS-2; cord samples): no significant differences | difference in SOCS-2 compared to control (SOCS-2; [8]): no significant difference | clinical disease in recipients after passive transfer (EAE in B6 recipients): did not have any prolonged clinical disease | Splenic SOCS-1 transcript level normalized to b-actin (SOCS-1 [1]; fed 0.1 mg): 0.28 % b-actin molecules | Splenic SOCS-1 transcript level normalized to b-actin (SOCS-1 [1]; fed 1 mg): 0.30 % b-actin molecules | Splenic SOCS-1 transcript level normalized to b-actin (SOCS-1 [1]; fed 10 mg): 0.23 % b-actin molecules | Splenic SOCS-1 transcript level normalized to b-actin (SOCS-1 [1]; fed 100 mg): 0.23 % b-actin molecules | decrease in SOCS-1 compared to control (SOCS-1 [1]; [9]): up to 30% | frequency of mice becoming diabetic compared to mock treated mice [2]: decreased frequency of mice becoming diabetic | onset of T1DM compared to mock treated mice [2]: significantly delayed onset of T1DM | delay in the onset of disease compared to placebo (acute EAE in B6 mice [3]; 0.1 mg gavaged, FIG. 4): prolonged delay in the onset of disease | inhibition of EAE disease severity compared to placebo (acute EAE in B6 mice [3]; 0.1 mg gavaged, day −7 through day 14, n=4/group, FIG. 4): significant inhibition of disease severity | inhibition of EAE disease severity compared to placebo (acute EAE in B6 mice [3]; 0.1 mg gavaged, day −7 through day 14, n=4/group, FIG. 4, listed as soluble immune response suppressor peptide): significant inhibition | inhibition of EAE compared to placebo (acute EAE in B6 mice [3]; 0.1 mg gavaged, repeat experiment, n=4/group, FIG. 5): no significant inhibition | inhibition of EAE compared to placebo (acute EAE in B6 mice [3]; 1 mg gavaged, day −7 through day 14, n=4/group, FIG. 4): significant inhibition | delay in the onset of disease compared to placebo (acute EAE in B6 mice [3]; 1 mg gavaged, repeat experiment, FIG. 5): prolonged delay in the onset of disease | inhibition of disease severity compared to placebo (acute EAE in B6 mice [3]; 1 mg gavaged, repeat experiment, FIG. 5, p<0.038 Mann-Whitney): significant inhibition of disease severity | delay in the onset of disease compared to placebo (acute EAE in B6 mice [3]; 10 mg gavaged, FIG. 4): prolonged delay in the onset of disease | inhibition of disease severity compared to placebo (acute EAE in B6 mice [3]; 10 mg gavaged, day −7 through day 14, n=4/group, FIG. 4): significant inhibition of disease severity | delay in the onset of disease compared to placebo (acute EAE in B6 mice [3]; 100 mg gavaged, FIG. 4): prolonged delay in the onset of disease | inhibition of disease severity compared to placebo (acute EAE in B6 mice [3]; 100 mg gavaged, day −7 through day 14, n=4/group, FIG. 4): significant inhibition of disease severity | delay in the onset of disease compared to placebo (acute EAE in B6 mice [3]; 100 mg gavaged, repeat experiment, FIG. 5): prolonged delay in the onset of disease | inhibition of disease severity compared to placebo (acute EAE in B6 mice [3]; 100 mg gavaged, repeat experiment, FIG. 5, p<0.001): significant inhibition of disease severity | difference in IL-10 compared to control (IL-10; cord samples): no significant differences | difference in IL-10 compared to control (IL-10; [8]): no significant difference | increase in SOCS-1 expression (SOCS-1 [4]; [10]): 75-175 % of control | SOCS-1 transcript level in CNS target tissue normalized to b-actin (SOCS-1 [4]; fed 0.1 mg): 0.14 % b-actin molecules | SOCS-1 transcript level in CNS target tissue normalized to b-actin (SOCS-1 [4]; fed 1 mg): 0.19 % b-actin molecules | SOCS-1 transcript level in CNS target tissue normalized to b-actin (SOCS-1 [4]; fed 10 mg): 0.22 % b-actin molecules | SOCS-1 transcript level in CNS target tissue normalized to b-actin (SOCS-1 [4]; fed 100 mg): 0.14 % b-actin molecules | decrease in SOCS-3 (SOCS-3 [5]; [10]): 45% | SOCS-3 transcript level in CNS target tissue normalized to b-actin (SOCS-3 [5]; fed 0.1 mg): 0.45 % b-actin molecules | SOCS-3 transcript level in CNS target tissue normalized to b-actin (SOCS-3 [5]; fed 1 mg): 0.54 % b-actin molecules | SOCS-3 transcript level in CNS target tissue normalized to b-actin (SOCS-3 [5]; fed 10 mg): 0.28 % b-actin molecules | SOCS-3 transcript level in CNS target tissue normalized to b-actin (SOCS-3 [5]; fed 100 mg): 0.22 % b-actin molecules | difference in IFN-γ compared to control (IFN-γ; cord samples): no significant differences | difference in IFN-γ compared to control (IFN-γ; [8]): no significant difference | inhibition of EAE compared to placebo (acute EAE in B6 mice [6]; 0.1 mg injected): no significant inhibition | inhibition of EAE compared to placebo (acute EAE in B6 mice [6]; 1 mg injected): no significant inhibition | inhibition of disease severity compared to placebo (acute EAE in B6 mice [6]; 10 mg injected (s.c.), FIG. 2, ρ<0.001): significant inhibition of disease severity | Splenic SOCS-3 transcript level normalized to b-actin (SOCS-3 [7]; fed 0.1 mg): 0.38 % b-actin molecules | Splenic SOCS-3 transcript level normalized to b-actin (SOCS-3 [7]; fed 1 mg): 0.28 % b-actin molecules | Splenic SOCS-3 transcript level normalized to b-actin (SOCS-3 [7]; fed 10 mg): 0.21 % b-actin molecules | Splenic SOCS-3 transcript level normalized to b-actin (SOCS-3 [7]; fed 100 mg): 0.18 % b-actin molecules | decrease in SOCS-3 compared to control (SOCS-3 [7]; [9]): 60% | decrease in IL-4 expression (IL-4; [10]): up to 80% | IL-4 transcript level in CNS target tissue normalized to b-actin (IL-4; fed 0.1 mg): 0.04 % b-actin molecules | IL-4 transcript level in CNS target tissue normalized to b-actin (IL-4; fed 1 mg): 0.15 % b-actin molecules | IL-4 transcript level in CNS target tissue normalized to b-actin (IL-4; fed 10 mg): 0.05 % b-actin molecules | IL-4 transcript level in CNS target tissue normalized to b-actin (IL-4; fed 100 mg): 0.02 % b-actin molecules | difference in IL-4 compared to control (IL-4; [8]): no significant difference

MEVGWYRSPFSRVVHLYRNGK [Synthetic peptide 35-55 from myelin oligodendrocyte glycoprotein, used to induce EAE]
mean clinical score (scale 0-6) (C57/BL6 mice): 3.44
